From patent publication US20260042731A1, “(2,4-DICHLOROPHENOXY)ACETIC ACID ANALOGS” (CORTEVA AGRISCIENCE LLC, priority 2022, published 2026)
Like-named read-outs stand apart in the source and are kept apart here.

Columns and labels:
[1] = system: Amaranthus rudis (AMATA), tall water hemp; experiment: Postemergence herbicide evaluation, growth of Amaranthus rudis (AMATA); format: in vivo; settings: Amaranthus tuberculatus, post-emergence, percent reduction in plant size vs untreated control, read-out: Ave. AMATA; for pest or weed control at 280 g/ha: 280 g ae/ha; for pest or weed control at 560 g/ha: 560 g ae/ha
[2] = system: glyphosate resistant Conyza canadensis (L.) (ERICA), horseweed; experiment: Postemergence herbicide evaluation, growth of Conyza canadensis (ERICA); format: in vivo; settings: Erigeron canadensis, post-emergence, percent reduction in plant size vs untreated control, read-out: Ave. ERICA; for pest or weed control at 280 g/ha: 280 g ae/ha; for pest or weed control at 560 g/ha: 560 g ae/ha
[3] = system: weeds ABUTH, AMATA, AMBEL, CHEAL, ERICA; experiment: Postemergence herbicide evaluation, overall average % weed control across ABUTH, AMATA, AMBEL, CHEAL and ERICA; format: in vivo; settings: post-emergence, average over five weeds, read-out: Overall Ave % Weed Control; for pest or weed control at 280 g/ha: 280 g ae/ha; for pest or weed control at 560 g/ha: 560 g ae/ha
[4] = system: Abutilon theophrasti (ABUTH), velvetleaf; experiment: Postemergence herbicide evaluation, growth of Abutilon theophrasti (ABUTH); format: in vivo; settings: Abutilon theophrasti, post-emergence, percent reduction in plant size vs untreated control, read-out: AVE. ABUTH; for pest or weed control at 280 g/ha: 280 g ae/ha; for pest or weed control at 560 g/ha: 560 g ae/ha
[5] = Volatility of compounds measured by thermogravimetric analysis (TGA); format: physicochemical
[6] = system: Ambrosia artemisiifolia (AMBEL), common ragweed; experiment: Postemergence herbicide evaluation, growth of Ambrosia artemisiifolia (AMBEL); format: in vivo; settings: Ambrosia artemisiifolia, post-emergence, percent reduction in plant size vs untreated control, read-out: AVE. AMBEL; for pest or weed control at 280 g/ha: 280 g ae/ha; for pest or weed control at 560 g/ha: 560 g ae/ha
[7] = system: Chenopodium album (CHEAL), common lambsquarters; experiment: Postemergence herbicide evaluation, growth of Chenopodium album (CHEAL); format: in vivo; settings: Chenopodium album, post-emergence, percent reduction in plant size vs untreated control, read-out: Ave. CHEAL; for pest or weed control at 280 g/ha: 280 g ae/ha; for pest or weed control at 560 g/ha: 560 g ae/ha

Structure (SMILES)	pest or weed control at 280 g/ha ([1]; 168 h, 7 DAA) [%]	pest or weed control at 560 g/ha ([1]; 168 h, 7 DAA) [%]	pest or weed control at 280 g/ha ([1]; 336 h, 14 DAA) [%]	pest or weed control at 560 g/ha ([1]; 336 h, 14 DAA) [%]	pest or weed control at 280 g/ha ([1]; 504 h, 21 DAA) [%]	pest or weed control at 280 g/ha ([2]; 168 h, 7 DAA) [%]	pest or weed control at 560 g/ha ([2]; 168 h, 7 DAA) [%]	pest or weed control at 280 g/ha ([2]; 336 h, 14 DAA) [%]	pest or weed control at 560 g/ha ([2]; 336 h, 14 DAA) [%]	pest or weed control at 280 g/ha ([2]; 504 h, 21 DAA) [%]	pest or weed control at 560 g/ha ([2]; 504 h, 21 DAA) [%]	pest or weed control at 280 g/ha ([3]; 168 h, 7 DAA) [%]	pest or weed control at 560 g/ha ([3]; 168 h, 7 DAA) [%]	pest or weed control at 280 g/ha ([3]; 336 h, 14 DAA) [%]	pest or weed control at 560 g/ha ([3]; 336 h, 14 DAA) [%]	pest or weed control at 280 g/ha ([3]; 504 h, 21 DAA) [%]	pest or weed control at 560 g/ha ([3]; 504 h, 21 DAA) [%]	pest or weed control at 280 g/ha ([4]; 168 h, 7 DAA) [%]	pest or weed control at 560 g/ha ([4]; 168 h, 7 DAA) [%]	pest or weed control at 280 g/ha ([4]; 336 h, 14 DAA) [%]	other results
O=C(COc1ccc(Cl)cc1Cl)NOCCc1ccccc1 [Compound D18]	72.5	96	87.5	96	75	85	85	99	98	100	98	75	83.9	89.8	95.6	93.5	98.5	67.5	72.5	85	pest or weed control at 560 g/ha ([1]; 504 h, 21 DAA): 95%; pest or weed control at 560 g/ha ([4]; 336 h, 14 DAA): 96.5%; pest or weed control at 280 g/ha ([4]; 504 h, 21 DAA): 100%; pest or weed control at 560 g/ha ([4]; 504 h, 21 DAA): 99.5%; TGA Data (rate of weight loss, volatility) [5]: 0.1777 µg/min; pest or weed control at 280 g/ha ([6]; 168 h, 7 DAA): 75%; pest or weed control at 560 g/ha ([6]; 168 h, 7 DAA): 91%; pest or weed control at 280 g/ha ([6]; 336 h, 14 DAA): 80%; pest or weed control at 560 g/ha ([6]; 336 h, 14 DAA): 95%; pest or weed control at 280 g/ha ([6]; 504 h, 21 DAA): 100%; pest or weed control at 560 g/ha ([6]; 504 h, 21 DAA): 100%; pest or weed control at 280 g/ha ([7]; 168 h, 7 DAA): 75%; pest or weed control at 560 g/ha ([7]; 168 h, 7 DAA): 75%; pest or weed control at 280 g/ha ([7]; 336 h, 14 DAA): 97.5%; pest or weed control at 560 g/ha ([7]; 336 h, 14 DAA): 92.5%; pest or weed control at 280 g/ha ([7]; 504 h, 21 DAA): 92.5%; pest or weed control at 560 g/ha ([7]; 504 h, 21 DAA): 100%
CONC(=O)COc1ccc(Cl)cc1Cl [Compound D19]	77.5	90	90	93.5	72.5	82.5	80	98	100	98.5	99.5	79	87.2	90.7	94.3	93.2	94.5	75	87.5	89	pest or weed control at 560 g/ha ([1]; 504 h, 21 DAA): 75%; pest or weed control at 560 g/ha ([4]; 336 h, 14 DAA): 98%; pest or weed control at 280 g/ha ([4]; 504 h, 21 DAA): 98.5%; pest or weed control at 560 g/ha ([4]; 504 h, 21 DAA): 100%; TGA Data (rate of weight loss, volatility) [5]: 0.61 µg/min; pest or weed control at 280 g/ha ([6]; 168 h, 7 DAA): 82.5%; pest or weed control at 560 g/ha ([6]; 168 h, 7 DAA): 93.5%; pest or weed control at 280 g/ha ([6]; 336 h, 14 DAA): 82.5%; pest or weed control at 560 g/ha ([6]; 336 h, 14 DAA): 85%; pest or weed control at 280 g/ha ([6]; 504 h, 21 DAA): 100%; pest or weed control at 560 g/ha ([6]; 504 h, 21 DAA): 100%; pest or weed control at 280 g/ha ([7]; 168 h, 7 DAA): 77.5%; pest or weed control at 560 g/ha ([7]; 168 h, 7 DAA): 85%; pest or weed control at 280 g/ha ([7]; 336 h, 14 DAA): 94%; pest or weed control at 560 g/ha ([7]; 336 h, 14 DAA): 95%; pest or weed control at 280 g/ha ([7]; 504 h, 21 DAA): 96.5%; pest or weed control at 560 g/ha ([7]; 504 h, 21 DAA): 98%
COc1ccc(CONC(=O)COc2ccc(Cl)cc2Cl)cc1 [Compound D20]	72.5	77.5	97.5	96	57.5	72.5	82.5	99.5	98.5	96	96	77.5	75	88.9	90.3	90.2	91.2	77.5	55	90	pest or weed control at 560 g/ha ([4]; 336 h, 14 DAA): 67.5%; pest or weed control at 280 g/ha ([4]; 504 h, 21 DAA): 98.5%; pest or weed control at 560 g/ha ([4]; 504 h, 21 DAA): 80%; TGA Data (rate of weight loss, volatility) [5]: 0.0112 µg/min; pest or weed control at 280 g/ha ([6]; 168 h, 7 DAA): 80%; pest or weed control at 560 g/ha ([6]; 168 h, 7 DAA): 77.5%; pest or weed control at 280 g/ha ([6]; 336 h, 14 DAA): 70%; pest or weed control at 280 g/ha ([6]; 504 h, 21 DAA): 100%; pest or weed control at 560 g/ha ([6]; 504 h, 21 DAA): 100%; pest or weed control at 280 g/ha ([7]; 168 h, 7 DAA): 85%; pest or weed control at 560 g/ha ([7]; 168 h, 7 DAA): 82.5%; pest or weed control at 280 g/ha ([7]; 336 h, 14 DAA): 87.5%; pest or weed control at 560 g/ha ([7]; 336 h, 14 DAA): 94.5%; pest or weed control at 280 g/ha ([7]; 504 h, 21 DAA): 99%; pest or weed control at 560 g/ha ([7]; 504 h, 21 DAA): 95%
